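Compound exposure: 48 hours, 5 concentrations, 96-well plates. GI50 marks 50% less growth. The concentration for full growth arrest is given as TGI.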
Legend:
Test in all cases: inhibition of tumour cell growth, NCI panel, 48 h
NCI-H460 lung = test system: NCI-H460 lung
SR leukemia = test system: SR leukemia
SF-539 CNS = test system: SF-539 CNS
K-562 leukemia = test system: K-562 leukemia
COLO 205 colon = test system: COLO 205 colon
A498 renal = test system: A498 renal
SNB-75 CNS = test system: SNB-75 CNS
OVCAR-4 ovarian = test system: OVCAR-4 ovarian
MDA-MB-435 = test system: MDA-MB-435
MCF7 breast = test system: MCF7 breast

SMILES | TGI (NCI-H460 lung) [µM] | TGI (SR leukemia) [µM] | TGI (SF-539 CNS) [µM] | TGI (K-562 leukemia) [µM] | TGI (COLO 205 colon) [µM] | TGI (A498 renal) [µM] | TGI (SNB-75 CNS) [µM] | TGI (OVCAR-4 ovarian) [µM] | GI50 (NCI-H460 lung) [µM] | GI50 (MDA-MB-435) [µM] | TGI (MDA-MB-435) [µM] | GI50 (SF-539 CNS) [µM] | GI50 (K-562 leukemia) [µM] | GI50 (COLO 205 colon) [µM] | GI50 (A498 renal) [µM] | GI50 (SNB-75 CNS) [µM] | GI50 (MCF7 breast) [µM] | TGI (MCF7 breast) [µM] | GI50 (OVCAR-4 ovarian) [µM] | GI50 (SR leukemia) [µM]
CS(=O)(=O)CC1=Nc2nnc(CCCCCCCc3nnc4n3C(=O)C(CS(C)(=O)=O)=N4)n2C1=O | > 100 | > 100 | > 100 | > 100 | > 100 | > 100 | > 100 |  |  |  |  |  |  |  |  |  |  |  |  | 
O=C(CCn1[nH]c(=O)c(Cl)c(Cl)c1=O)NOCCCc1ccccc1 | > 100 | > 100 | > 100 | > 100 |  | > 100 | > 100 | > 100 |  |  |  |  |  |  |  |  |  |  |  | 
CCc1c(C)[nH]c(/C=C2\N=C(c3ccc[nH]3)C=C2OC)c1C | 10.8 |  | 2.16 | 8.97 | 1.88 | 21.5 | 0.71 | 12.5 | 0.094 | 0.0733 | 1.42 | 0.448 | 0.805 | 0.268 | 6.87 | 0.269 | 0.4 | 6.93 | 0.893 | 
CC(=O)[O][Pb]([O]C(C)=O)([c]1ccccc1)[c]1ccccc1 | > 100 | > 100 | > 100 | > 100 | 15 | > 100 | > 77.7 | > 100 | 7.51 |  |  | 13.3 | > 25.9 | 1.76 | 23.4 | 4.41 |  |  | > 100 | 6.22
O=C(O)[C@@H]1C2CC([C@@H]1C(=O)O)[C@H](N1C(=O)CCC1=O)[C@@H]2Br (stereo partly specified) | > 100 | > 100 | > 100 | > 100 | > 100 | > 100 | > 100 | > 100 |  |  | > 100 |  |  |  |  |  |  |  |  | 
COc1cc2c(cc1OC)-c1ccc3cc4c(cc3c1N(CCN1CCCC1)C2)OCO4 | 1.17 | 1.23 | 2.75 | 1.65 | 1.56 | 4.63 | 5.81 | 6.49 | 0.289 | 1.36 | 6.13 | 0.643 | 0.291 | 0.299 | 1.57 | 0.357 |  |  | 0.858 | 0.0696
COC12C=CC(CC1)c1c(O)ccc(O)c12 (stereo unspecified) | > 100 | 36.3 | > 100 | 61.8 | 57 | > 100 | > 100 | 46.6 |  |  |  |  |  |  |  |  |  |  |  | 
Nc1cc(=O)[nH]c(SC2=NC(N)CC(O)C2)n1 (stereo unspecified) | > 100 | > 100 | > 100 | > 100 | > 100 |  | > 100 | > 100 |  |  |  |  |  |  |  |  |  |  |  | 
COc1cccc(OC(=O)c2ccccc2Nc2ccnc(C(F)(F)F)c2)c1 | > 100 |  |  | > 100 | 5.13 |  |  |  | 4.1 |  |  |  | 0.739 | 2.22 |  |  | 7.29 | > 100 |  | 
C=CCC(N[C@H](CO)C(C)C)c1cn(C(=O)OCC)c2ccccc12 (stereo partly specified) | > 100 |  | 69.9 | 25.8 | 65.9 |  | > 100 | > 100 | 32.4 | 20.3 | 50.5 | 28.2 | 11.1 | 25.4 |  | 69.3 | 35 | > 100 | 49.6 | 
COC(=O)[C@@H]1CSC(=S)N1C(=O)C[C@H]1CC=CC[C@H]1CC(=O)Sc1ccccc1 | 33.5 | 27.9 | 32.1 | 38.9 | 37.1 |  | 29 |  |  |  |  |  |  |  |  |  |  |  |  | 
C=C1C(=O)OC2CC3(C)C=CC(=O)C(=C)C3CC12 (stereo unspecified) | 7.12 | 12.4 | 3.97 | > 100 | 3.05 | 19.5 | 14.7 | 6.55 |  |  |  |  |  |  |  |  |  |  |  | 
C=C1C(=O)O[C@H]2C[C@@H](C)[C@@H]3CC(=O)OC[C@@]3(C)CC12 (stereo partly specified) | 51 |  | 48 | 68.5 | 60.7 |  | > 100 | 54.4 |  |  |  |  |  |  |  |  |  |  |  | 
Cc1ccc2c(c1)C1(C)OC(CC(N)C1O)O2 (stereo unspecified) | > 100 |  | > 100 | > 100 | > 100 |  | > 100 |  |  |  |  |  |  |  |  |  |  |  |  | 
CN1CCc2c1nc(-c1ccccc1)c1c2N(C)CC1 | > 100 |  | > 100 | > 100 | > 100 | > 100 | > 100 | > 100 |  |  |  |  |  |  |  |  |  |  |  | 

Reference: PubChem BioAssay (NCI)
